Experiment [1] addresses T1, MAGL (monoacylglycerol lipase) (Mus musculus, UniProt O35678).
T1 sequence (O35678 1-303): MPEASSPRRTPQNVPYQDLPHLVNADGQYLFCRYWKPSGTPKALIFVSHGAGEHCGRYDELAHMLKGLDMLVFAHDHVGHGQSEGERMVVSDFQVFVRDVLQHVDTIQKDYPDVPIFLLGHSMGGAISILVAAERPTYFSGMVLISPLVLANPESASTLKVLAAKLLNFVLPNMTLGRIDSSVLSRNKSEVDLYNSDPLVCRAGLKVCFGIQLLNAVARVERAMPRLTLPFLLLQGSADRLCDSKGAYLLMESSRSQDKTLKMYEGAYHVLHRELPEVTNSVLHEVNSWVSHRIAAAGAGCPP
In words: gel-based competitive ABPP with FP-TAMRA at […]. The format is cell-based. Set-up: gene Mgll; endogenous, mouse brain membrane proteome. The note with it: read-out: % inhibition at 10 μM.

For experiment [2], the target named is T1, MAGL (monoacylglycerol lipase). Briefly: biochemical. The note with it: read-out: Inhibition ABPP assay (%). Details: gene Mgll; endogenous, mouse brain membrane proteome; gel-based competitive ABPP with FP-TAMRA on mouse brain membrane proteome, MAGL labelling, n=1. The text has this: Subsequently, the qualified hits underwent testing in an orthogonal gel-based competitive activity-based protein profiling (ABPP) assay, a powerful technique for obtaining an initial selectivity profile of these compounds. The assay employed fluorophosphonate-tetramethylrhodamine (FP-TAMRA), a broad-spectrum activity-based probe designed to target a wide range of serine hydrolases, including endocannabinoid hydrolases like MAGL, fatty acid amide hydrolase (FAAH), and alpha/beta hydrolase domain-containing protein 6 (ABHD6)[30],[31]. […] This observation could indicate potential species differences or a short residence time for the target. A correlation between inhibitor potency in the primary substrate-based assay and the orthogonal ABPP assay was, however, noted for the majority of compounds (Fig. 1f). […] This characteristic positions it as a promising candidate for further optimization. 71 Figure S1 72 73 74 75 76 Supplementary Figure 1 – Orthogonal competitive ABPP assay for hit validation and selectivity assessment. 77 ABPP was performed on mouse brain membrane proteome using FP-TAMRA. Proteome was pre-incubated with 78 inhibitor (10 µM, 30 min), followed by incubation with FP-TAMRA (100 nM, 10 min). JZL184 was included as 79 positive control on all gels. […] Physicochemical properties (cLogP, tPSA, HBD, HBA) were calculated using ChemDraw Professional 31 16.0.

The target in experiment [3] is T2, MAGL (monoacylglycerol lipase) (Homo sapiens, UniProt Q99685).
T2 construct: gene MGLL; full-length, C-terminal FLAG-tag, HEK293T membrane fractions
T2 sequence (Q99685 whole entry): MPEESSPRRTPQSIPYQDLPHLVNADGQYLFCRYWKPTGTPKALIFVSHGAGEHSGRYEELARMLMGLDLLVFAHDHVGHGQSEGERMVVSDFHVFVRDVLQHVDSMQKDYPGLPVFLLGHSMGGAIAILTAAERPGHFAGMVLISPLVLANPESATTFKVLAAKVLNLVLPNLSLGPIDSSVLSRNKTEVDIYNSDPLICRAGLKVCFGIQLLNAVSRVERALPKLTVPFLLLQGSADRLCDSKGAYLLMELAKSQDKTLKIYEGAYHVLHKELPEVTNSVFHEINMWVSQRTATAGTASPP
Briefly: fluorescent 2-AG hydrolysis assay on human MAGL-overexpressing HEK293T membranes. The format is biochemical.

pIC50: −log10 of the molar value.

By inhibition is commonly meant the change of the read-out against control, counted positive when it falls. In general, pIC50 refers to the negative decadic logarithm of the IC50, by convention in mol/L. Read a low pIC50 as a large IC50.

With `CCOC(=O)C[S+]([O-])c1ccc(C(=O)N2CCN(c3cccc(C)c3)C(C)C2)cc1[N+](=O)[O-]` (stereo not drawn) [compound 1, ethyl 2-((4-(3-methyl-4-(m-tolyl)piperazine-1-carbonyl)-2-nitrophenyl)sulfinyl)acetate], the inhibition at 10 µM was > 25% in experiment [1] and 86% in experiment [2]. Further, the pIC50 in experiment [3] is 6.40.
